Laboratory results reported in patent US6040320A, “2-substituted imidazoles useful in the treatment of inflammatory diseases” (Ortho-McNeil Pharmaceutical, Inc., priority 1998, dated 2000).

target: T1, p38 (Homo sapiens, UniProt Q16539); test: in vitro inhibition of p38 (CPSB): purified recombinant 6xHis-p38, myelin basic protein substrate, 33P-ATP; type: biochemical; details: not given
T1 construct: 6xHis (N); made in house; host or cells: E. coli
T1 sequence (Q16539 whole entry): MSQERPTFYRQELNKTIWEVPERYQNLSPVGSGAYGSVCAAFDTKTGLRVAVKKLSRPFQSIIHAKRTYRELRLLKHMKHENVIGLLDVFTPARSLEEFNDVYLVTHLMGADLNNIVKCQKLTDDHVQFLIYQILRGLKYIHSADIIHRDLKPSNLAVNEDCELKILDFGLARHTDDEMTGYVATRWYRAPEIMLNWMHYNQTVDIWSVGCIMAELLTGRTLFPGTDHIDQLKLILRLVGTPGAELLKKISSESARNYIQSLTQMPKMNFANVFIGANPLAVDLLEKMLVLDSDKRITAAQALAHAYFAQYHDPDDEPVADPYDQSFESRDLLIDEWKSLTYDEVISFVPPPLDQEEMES

Row | IC50 [nM] | SMILES
1 | 750 | C=CCSc1nc(-c2ccncc2)c(-c2ccc(F)cc2)[nH]1 [Compound 37]
2 | 400 | N#CCSc1nc(-c2ccncc2)c(-c2ccc(F)cc2)[nH]1 [Compound 38]
3 | 280 to 700 | CCCCSc1nc(-c2ccncc2)c(-c2ccc(F)cc2)[nH]1 [Compound 40]
4 | 1000 to 1800 | Fc1ccc(-c2[nH]c(SCC3CC3)nc2-c2ccncc2)cc1 [Compound 23]
5 | 1900 | Fc1ccc(-c2[nH]c(S)nc2-c2ccncc2)cc1 [Compound 21]
6 | 680 | CCCSc1nc(-c2ccncc2)c(-c2ccc(F)cc2)[nH]1 [Compound 1, 5(4)-(4-Fluorophenyl)2-(1-propyl)thio-4(5)-(4-pyridyl)-5(4)-imidazole]
7 | 1420 | CC(=O)OCCCCc1nc(-c2ccncc2)c(-c2ccc(F)cc2)[nH]1 [Compound 16a, 4-[5(4)-(4-Fluorophenyl)-(5)-(4-pyridyl)imidazol-2-yl]butayl acetate]
8 | 470 | CC(C)Sc1nc(-c2ccncc2)c(-c2ccc(F)cc2)[nH]1 [Compound 22]
9 | 2000 | CCOC(CCSc1nc(-c2ccncc2)c(-c2ccc(F)cc2)[nH]1)OCC [Compound 20]
10 | 400 | CCSc1nc(-c2ccncc2)c(-c2ccc(F)cc2)[nH]1 [Compound 39]

Row | SMILES | IC50 [nM]
11 | OCCCCc1nc(-c2ccncc2)c(-c2ccc(F)cc2)[nH]1 [Compound 16b, 4-[5(4)-(4-Fluorophenyl)4(5)-(4-pyridyl)imidazol-2-yl]butanol] | 1590

same assay, conditions: @ 5 μm

Row | CPSB % inhibition [%] | SMILES
12 | 2 | CC(=O)OCCCCc1nc(-c2ccncc2)c(-c2ccc(F)cc2)n1Cc1ccccc1 [Compound 42]
13 | 10 | CC(=O)OCCCCc1nc(-c2ccncc2)c(-c2ccc(F)cc2)n1C(=O)OCc1ccccc1 [Compound 18]
14 | 8 | O=C1c2ccccc2C(=O)N1CCCCc1nc(-c2ccncc2)c(-c2ccc(F)cc2)n1Cc1ccccc1 [Compound 43]

Row | SMILES | CPSB % inhibition [%]
15 | C[Si](C)(C)CCOCn1c(CO)nc(-c2ccncc2)c1-c1ccc(F)cc1 [Compound 36] | 6

same assay, conditions: @ 20 μm

Row | CPSB % inhibition [%] | SMILES
16 | 26 | NCCCSc1nc(-c2ccc(F)cc2)c(-c2ccncc2)[nH]1 [Compound 3, 2-(3-Aminoprop-1-yl)thio-5(4)-(4-fluorophenyl)4(5)-(4-pyridyl)-imidazole]
17 | 81 | CNC(=O)Sc1nc(-c2ccc(F)cc2)c(-c2ccncc2)[nH]1 [Compound 5, 5(4)-(4-Fluorophenyl)-2-(N-methylaminocarbonyl)thio-4(5)-(4-pyridyl)-imidazole]

system: TNF-α; test: in vitro whole cell assay: LPS-stimulated TNF-α production in PBMC (ELISA); type: cell-based, human; details: Homo sapiens, PBMC, read-out: TNF-α IC50
Protocol: In addition to the enzyme assay, the compounds of the invention were tested in an in vitro whole cell assay using peripheral blood mononuclear cells ("PBMC") which were obtained from human blood as follows. Freshly obtained venous blood was anticoagulated with heparin, diluted with an equal volume of phosphate buffered saline ("PBS") and placed in a sterile tube or other container. Aliquots (30 mL) of this mixture were transferred to centrifuge tubes which were underlaid with Ficoll-Hypaque (15 mL). The prepared tubes were centrifuged at 400×g without braking for 30 min at room temperature. Approximately 1/2 to 2/3 of the platelet layer above the mononuclear cell band was removed with a pipet. The majority of the mononuclear cell layer was carefully removed using a pipet and these PBMCs were diluted with PBS and spun at 600×g for 15 min. The resulting PBMCs were washed with another portion of PBS and spun at 400×g for 10 min at room temperature. The recovered pellets were diluted in low endotoxin RPMI/1% FCS culture medium and gave a cell concentration of 0.5-2.0 X 10^6 PMBC/mL. A small volume of the suspension was removed for counting on a hemocytometer and the remaining preparation was centrifuged at 200×g for 15 min at room temperature. The recovered pelleted PMBC were resuspended in RPMI/1% FCS to a concentration of 1.67×10^6 /mL.
To run the assay, the PBMC suspension (180 μL) was transferred to duplicate wells of a 96-well flat-bottom microtiter plate and incubated for 1 h at 37° C. A solution of test compound (10 μL: prepared at 20×the desired final concentration) was added to each well and the plate was incubated for 1 h at 37° C. A solution (10 μL) of LPS in RPMI/1% FCS (200 ng/mL) was added and the wells were incubated overnight at 37° C. The supernate (100 μL) was removed from each well and diluted with RPMI/1% FCS (400 μL). The samples were analyzed for TNF-α using a commercial ELISA kit (Genzyme). […] Since imidazoles which are unsubstituted at the 1-position are subject to tautomerization, the substituents listed for R1 and R2 are interchangeable when R3 is hydrogen.

Row | SMILES | IC50 [nM]
18 | OCCCCc1nc(-c2ccncc2)c(-c2ccc(F)cc2)[nH]1 [Compound 16b, 4-[5(4)-(4-Fluorophenyl)4(5)-(4-pyridyl)imidazol-2-yl]butanol] | 10
19 | C[Si](C)(C)CCOCn1c(C(=O)CCCO)nc(-c2ccncc2)c1-c1ccc(F)cc1 [Compound 9, 4-Hydroxy-1-[5-(4-fluorophenyl)-4-(4-pyridyl)-1-(2-(trimethylsilyl)ethoxymethyl)imidazol-2-yl]butanone] | > 10000
20 | CC(=O)OCCCCc1nc(-c2ccc(F)cc2)c(-c2ccncc2)n1COCC[Si](C)(C)C [Compound 44] | 150

same assay, conditions: human PBMC, LPS; read-out: TNF-α IC50

Row | SMILES | IC50 [nM]
21 | O=C1c2ccccc2C(=O)N1CCCn1c(CCCCO)nc(-c2ccc(F)cc2)c1-c1ccncc1 [Compound 51] | 175
22 | O=C1c2ccccc2C(=O)N1CCCn1c(CCCCO)nc(-c2ccncc2)c1-c1ccc(F)cc1 [Compound 52] | 200
23 | OCCSCc1nc(-c2ccncc2)c(-c2ccc(F)cc2)[nH]1 [Compound 13, 5-(4-Fluorophenyl)-2-[4-hydroxy-2-thiabut-1-yl]4-(4-pyridyl)-imidazole] | 80
24 | OCc1nc(-c2ccc(F)cc2)c(-c2ccncc2)[nH]1 [Compound 49] | 250
25 | O=C(NCCCSc1nc(-c2ccc(F)cc2)c(-c2ccncc2)[nH]1)c1ccc2ccccc2c1 [Compound 31] | 275
26 | CC(=O)OCCCCc1nc(-c2ccc(F)cc2)c(-c2ccncc2)n1CCCN1C(=O)c2ccccc2C1=O [Compound 50] | 150
27 | O=C1c2ccccc2C(=O)N1CCCOCc1nc(-c2ccc(F)cc2)c(-c2ccncc2)n1CCCN1C(=O)c2ccccc2C1=O [Compound 53] | 175
28 | CS(=O)(=O)NCCCSc1nc(-c2ccc(F)cc2)c(-c2ccncc2)[nH]1 [Compound 32] | 150
29 | CC(=O)NCCCSc1nc(-c2ccc(F)cc2)c(-c2ccncc2)[nH]1 [Compound 34] | 200
30 | O=C1c2ccccc2C(=O)N1CCCOCc1nc(-c2ccncc2)c(-c2ccc(F)cc2)n1CCCN1C(=O)c2ccccc2C1=O [Compound 54] | 200
31 | O=C1c2ccccc2C(=O)N1CCSCc1nc(-c2ccc(F)cc2)c(-c2ccncc2)[nH]1 [Compound 33] | 200
32 | O=C1c2ccccc2C(=O)N1CCCCc1nc(-c2ccc(F)cc2)c(-c2ccncc2)n1Cc1ccccc1 [Compound 48] | 1750
33 | CCCSCc1nc(-c2ccc(F)cc2)c(-c2ccncc2)[nH]1 [Compound 35] | 30
34 | CCCCCCCCCCSc1nc(-c2ccc(F)cc2)c(-c2ccncc2)[nH]1 [Compound 41] | > 10000
35 | CCCS(=O)(=O)Cc1nc(-c2ccncc2)c(-c2ccc(F)cc2)n1COCC[Si](C)(C)C [Compound 57] | 5000
36 | O=C1c2ccccc2C(=O)N1CCCCc1nc(-c2ccncc2)c(-c2ccc(F)cc2)[nH]1 [Compound 47] | 283
37 | O=C1c2ccccc2C(=O)N1CCCn1c(CO)nc(-c2ccncc2)c1-c1ccc(F)cc1 [Compound 55] | 1250
38 | COCc1nc(-c2ccc(F)cc2)c(-c2ccncc2)n1CCCN1C(=O)c2ccccc2C1=O [Compound 58] | 75

Other lines, results leading:

Row | IC50 [nM] | SMILES
39 | 20 | CCc1nc(-c2ccncc2)c(-c2ccc(F)cc2)n1CCCN1C(=O)c2ccccc2C1=O [Compound 65]
40 | 20 | Fc1ccc(-c2ncn(CCCc3cccnc3)c2-c2ccncc2)cc1 [Compound 82]
41 | 200 | Fc1ccc(-c2nc(Br)n(CCCc3ccccc3)c2-c2ccncc2)cc1 [Compound 74]
42 | 400 | COCc1nc(-c2ccncc2)c(-c2ccc(F)cc2)n1CCCN1C(=O)c2ccccc2C1=O [Compound 60]
43 | 450 | CCCCc1cc(-c2c(-c3ccc(F)cc3)nc(CO)n2CCCc2ccccc2)ccn1 [Compound 78]
44 | 1.5 | Cc1nc(-c2ccc(F)cc2)c(-c2ccncc2)n1CCCc1ccccc1 [Compound 68]
45 | 2000 | Fc1ccc(-c2c(-c3ccncc3)ncn2CCOc2ccccc2)cc1 [Compound 85]
46 | 200 | CCC(=O)Cn1cnc(-c2ccc(F)cc2)c1-c1ccncc1 [Compound 80]
47 | 200 | CCOCCc1nc(-c2ccc(F)cc2)c(-c2ccncc2)n1CCCN1C(=O)c2ccccc2C1=O [Compound 61]
48 | 500 | O=C1c2ccccc2C(=O)N1CCCn1cnc(-c2ccncc2)c1-c1ccc(F)cc1 [Compound 70]
49 | 362 | Cc1nc(-c2ccc(F)cc2)c(-c2ccncc2)n1CCCN1C(=O)c2ccccc2C1=O [Compound 62]
50 | 10 | Fc1ccc(-c2ncn(CCCc3ccncc3)c2-c2ccncc2)cc1 [Compound 84]
51 | 1000 | Fc1ccc(-c2c(-c3ccncc3)ncn2CCCc2ccncc2)cc1 [Compound 83]
52 | 800 | O=C1c2ccccc2C(=O)N1CCCCn1c(I)nc(-c2ccncc2)c1-c1ccc(F)cc1 [Compound 76]
53 | 40 | Fc1ccc(-c2ncn(CCOc3ccccc3)c2-c2ccncc2)cc1 [Compound 86]
54 | 100 | Cc1nc(-c2ccncc2)c(-c2ccc(F)cc2)n1CCCc1ccccc1 [Compound 69]
55 | 17 | Cc1nc(-c2ccncc2)c(-c2ccc(F)cc2)n1CCCN1C(=O)c2ccccc2C1=O [Compound 63]
56 | 80 | CCc1nc(-c2ccc(F)cc2)c(-c2ccncc2)n1CCCN1C(=O)c2ccccc2C1=O [Compound 64]
57 | 500 | Fc1ccc(-c2c(-c3ccncc3)ncn2CCCc2cccnc2)cc1 [Compound 81]
58 | 39 | O=C1c2ccccc2C(=O)N1CCCn1cnc(-c2ccc(F)cc2)c1-c1ccncc1 [Compound 71]
59 | 500 | O=C1c2ccccc2C(=O)N1CCCCn1cnc(-c2ccc(F)cc2)c1-c1ccncc1 [Compound 73]
60 | 6 | CCc1nc(-c2ccc(F)cc2)c(-c2ccncc2)n1CCCc1ccccc1 [Compound 66]
61 | 3 | Fc1ccc(-c2nc(I)n(CCCc3ccccc3)c2-c2ccncc2)cc1 [Compound 75]
62 | 445 | O=C1c2ccccc2C(=O)N1CCCCn1c(I)nc(-c2ccc(F)cc2)c1-c1ccncc1 [Compound 77]
63 | 300 | CCc1nc(-c2ccncc2)c(-c2ccc(F)cc2)n1CCCc1ccccc1 [Compound 67]
64 | 600 | CCC(=O)Cn1cnc(-c2ccncc2)c1-c1ccc(F)cc1 [Compound 79]
65 | 300 | O=C1c2ccccc2C(=O)N1CCCCn1cnc(-c2ccncc2)c1-c1ccc(F)cc1 [Compound 72]
